Data set [1] concerns rat C3. Briefly: C3 consumption in rats in vivo, PS-C3 method in hirudinized plasma samples. To be noted: 12.5 U/kg CVF. As for the experimental part:
Male Wistar rats (340-480 g) were anesthetized i.p. by Na-pentobarbital (Nembutal, 50 mg/kg) or thiobutabarbital (lnactin, 120 mg/kg). The left femoral artery and vein, left carotid artery, and right jugular vein were cannulated. Rats were anticoagualated with lepirudin (Refludan, 5 mg/kg), then injected i.v. with the C activator liposomes, Doxil and Ambisome. Blood samples were collected from the carotid artery at start (time 0) and at 1-3-5-10-30 min postinjection.
Similar experiments as described in Example 7, except that the rats were injected with 10 mg/kg zymosan or 12.5 U/kg CVF.
Similar experiments as described in Example 11, except that C activation was measured by Quidel's human SC5b-9 (A) and C3a kits (B). Rats were injected with 12.5 U/kg CVF.

For data set [2], the system named is C activation in dog serum. Description: Complement activation by different activators in dog serum, pan-species C3 method. Format: biochemical. To be noted: SC5b-9 ELISA to determine SC5b-9. As for the experimental part: Methods • The sera that were not of commercial origin were prepared from freshly drawn blood, which was let to clot at room temperature for 10-30 min, followed by centrifugation and collection of the supernatant. The serum was then stored at −80° C. until use. Zymosan (final concentration: 1.3 mg/ml) was prepared by suspending it at 2% in 0.15 M sodium chloride, boiling in a water bath for one hour, then centrifuged for 30 minutes at 4000 rpm. The supernatant was discarded and the residue suspended evenly in 0.15 M sodium chloride to 2%. • HAGG was diluted 100-fold (to a final concentration: 0.5 mg/mL). • 10 μL Zymosan (20 mg/ml) or HAGG were incubated for 1 h at 37° C. with a mixture of 20 μL animal serum, and 20 μl C3depl-NHS 100 μl PBS. The reaction was stopped by the addition of the 10 μl stop solution, and 100 μL of a 1:1600 dilution from the mixtures were applied to the wells of the SC5b-9 ELISA plates to measure the formation of SC5b-9 as specified by the manufacturer.
Materials and Methods • Dog blood was obtained from WellPet Animal Clinic (Kecskemét, Géza Fejedelem körút 51. Hungary). Serum was prepared by letting the blood clot at 4° C. for about 10 min (dog blood clots rapidly), followed by centrifugation and collection of supernatant serum. […]
For orientation: ELISA stands for enzyme-linked immunosorbent assay.

As to CVF, in data set [1], the “human C3a in the reaction mixture (Quidel's C3a kit)” value is reported as “elevated” and the “time to consume essentially all C3” value is recorded as ≤ 30 min. Further, in data set [1] (within 30 min), the C3 consumed entry is “essentially all C3”.

`CCCCCCCC/C=C\CCCCCCCC(=O)OCCOCC(OCCO)C1OCC(OCCO)C1OCCO` (stereo not shown) [Tween 80]: the “rise of SC5b-9 over PBS control” value in data set [2] is ~30 fold.

The values above are taken from US10254288B2, “Method for species-independent measurement of complement activation in animals” (Quidel Corporation, priority 2013, dated 2019).
